Laboratory results as given in ChEMBL document CHEMBL4152312, “Identification of fused pyrimidines as interleukin 17 secretion inhibitors” (Eur J Med Chem, 2018).
pIC50: −log10 of the molar value.

Experiments:
[1] = test system: PBMC; assay: Inhibition of IL-17 secretion in anti-human CD3 antibody/anti-human CD28 antibody/IL23-stimulated human PBMC after 48 hrs by ELISA; format: functional, cell-based
[2] = test system: PBMC; assay: Cytotoxicity against human PBMC assessed as induction of cell death by cell Titer-Glo assay; format: cell-based
[3] = test system: PBMC; assay: Inhibition of IL-5 secretion in anti-human CD3 antibody/anti-human CD28 antibody/IL23-stimulated human PBMC after 48 hrs by ELISA; format: functional, cell-based

Row | SMILES | pIC50 [1] | pIC50 [2] | pIC50 [3]
1 | Cc1cc(C)c(-c2cc3c(N[C@H](C)c4ccccc4)ncnc3s2)c(C)c1 | < 5.00 | – | –
2 | COc1cccc(-c2cc3c(N[C@H](C)c4ccccc4)ncnc3s2)c1OC | < 5.00 | – | –
3 | Oc1ccccc1-c1cc2c(OC(c3ccccc3)C(F)(F)F)ncnc2s1 (centres undefined) | < 5.00 | – | –
4 | C[C@@H](Nc1ncnc2[nH]cc(-c3ccc(F)c(CO)c3)c12)c1ccccc1 | 5.51 | < 5.00 | –
5 | COc1ccc(-c2cc3c(NC(CC(N)=O)c4ccccc4)ncnc3s2)cc1 (centres undefined) | 5.40 | < 4.52 | 5.10 to 5.12
6 | CS(=O)(=O)CCNCc1ccc(-c2ccc3ncnc(Nc4ccc(OCc5cccc(F)c5)c(Cl)c4)c3c2)o1 [LAPATINIB] | – | 4.55 | –
7 | CC(Nc1ncnc2[nH]c(-c3ccc(CO)cc3)cc12)C12CC3CC(CC(C3)C1)C2 (centres undefined) | 5.30 | < 5.00 | –
8 | OCc1ccc(-c2cc3c(Nc4cccc(OCc5ccccc5)c4)ncnc3s2)cc1 | < 5.00 | – | –
9 | CN(C)CCn1cc(-c2ccc(CO)cc2)c2c(N[C@H](CO)c3ccccc3)ncnc21 | < 5.00 | – | –
10 | COc1cc(CO)ccc1-c1cc2c(N[C@H](CO)c3ccc(F)cc3)ncnc2[nH]1 | 5.51 | < 5.00 | –
11 | COc1cc(F)ccc1-c1cc2c(N[C@H](CO)c3ccccc3)ncnc2[nH]1 | 5.37 to 5.39 | < 5.00 | 5.96
12 | COc1ccc(-c2cc3c(N[C@H](CCO)c4ccccc4)ncnc3s2)cc1 | < 5.00 | – | –
13 | Fc1ccc(-c2cc3c(Nc4cccc(OCc5ccccc5)c4)ncnc3s2)cc1 | < 5.00 | – | –
14 | Oc1ccc(-c2cc3c(OC(c4ccccc4)C(F)(F)F)ncnc3s2)cc1 (centres undefined) | < 5.00 | – | –
15 | Oc1cccc(-c2cc3c(OC(c4ccccc4)C(F)(F)F)ncnc3s2)c1 (centres undefined) | < 5.00 | – | –
16 | CN(C)CCn1cc(-c2ccc(F)c(CO)c2)c2c(N[C@H](CO)c3ccccc3)ncnc21 | < 5.00 | – | –
17 | COc1cc(CO)ccc1-c1cc2c(Nc3ccc(OCc4cccc(F)c4)c(Cl)c3)ncnc2s1 | 5.05 | 4.55 | < 4.52
18 | C=Cc1ccc(-c2cc3c(N[C@H](C)c4ccccc4)ncnc3s2)cc1 | < 5.00 | – | –
19 | CC(C)c1cc(C(C)C)c(-c2cc3c(N[C@H](C)c4ccccc4)ncnc3s2)c(C(C)C)c1 | < 5.00 | – | –
20 | Fc1ccc(Nc2ncnc3sc(-c4ccc(Br)cc4)cc23)cc1Cl | < 5.00 | – | –

Row | SMILES | pIC50 [1] | pIC50 [2] | pIC50 [3]
21 | Cn1cc(-c2cccc(O)c2)c2c(N[C@H](CO)c3ccccc3)ncnc21 | 5.55 | < 5.00 | –
22 | CN(C)CCn1cc(-c2cccc(O)c2)c2c(N[C@H](CO)c3ccccc3)ncnc21 | < 5.00 | – | –
23 | OCc1ccc(-c2cc3c(Nc4ccc(OCc5cccc(F)c5)c(Cl)c4)ncnc3[nH]2)cc1 | < 5.00 | – | –
24 | Fc1ccc(-c2cc3c(Nc4cccc(OCc5ccccc5)c4)ncnc3[nH]2)cc1 | < 5.00 | – | –
25 | OCc1ccc(-c2cc3c(Nc4cccc(OCc5ccccc5)c4)ncnc3[nH]2)cc1 | 5.66 | < 5.00 | –
26 | CN(C)CCn1cc(-c2ccc(O)cc2)c2c(N[C@H](CO)c3ccccc3)ncnc21 | < 5.00 | – | –
27 | COc1cccc(OC)c1-c1cc2c(N[C@H](C)c3ccccc3)ncnc2[nH]1 | 5.38 | < 5.00 | 5.60
28 | Oc1cccc(-c2c[nH]c3ncnc(Nc4ccc(OCc5cccc(F)c5)c(Cl)c4)c23)c1 | < 5.00 | – | –
29 | COc1cc(CO)ccc1-c1cc2c(N[C@H](CO)c3ccccc3)ncnc2s1 | 5.34 | < 4.52 | 4.85
30 | CC(CO)Nc1ncnc2c1c(-c1cccc(O)c1)cn2CCN(C)C (single isomer, unassigned) | < 5.00 | – | –
31 | COc1ccccc1-c1cc2c(N[C@H](C)c3ccccn3)ncnc2s1 | < 5.00 | – | –
32 | COc1ccc(-c2cc3c(N[C@H](CO)c4ccccc4)ncnc3s2)cc1 | < 5.00 | – | –
33 | COc1cc(CO)ccc1-c1cc2c(N[C@H](CO)c3ccccc3)ncnc2[nH]1 | 5.49 to 5.51 | < 4.52 | 5.46 to 5.64
34 | C[C@@H](Nc1ncnc2sc(-c3ccccc3)cc12)c1ccccc1 | < 5.00 | – | –
35 | NC(=O)CC(Nc1ncnc2sc(-c3ccc(CO)cc3)cc12)c1ccccc1 (centres undefined) | 5.48 | < 5.00 | –
36 | C[C@@H](Nc1ncnc2[nH]cc(-c3ccc(F)c(CNCCN(C)C)c3)c12)c1ccccc1 | 5.30 | < 5.00 | –
37 | COc1ccc(-c2cc3c(N[C@H](C)C4CCCCC4)ncnc3s2)cc1 | < 5.00 | – | –
38 | COc1ccc(-c2cc3c(N[C@@H](C)CO)ncnc3s2)cc1 | < 5.00 | – | –
39 | COc1cccc(OC)c1-c1cc2c(N[C@H](CO)c3ccccc3)ncnc2s1 | 5.15 | < 4.52 | –
